Reference: ChEMBL document CHEMBL5126631, “Chemo- and Site-Selective Lysine Modification of Peptides and Proteins under Native Conditions Using the Water-Soluble Zolinium” (J Med Chem, 2022)

Experiments:
HepG2 = assay: Cytotoxicity against human HepG2 cells assessed as inhibition of cell viability at 25 uM measured after 48 hrs by CCK-8 assay; assay type: functional
[1] = Drug localization in nucleus of human HepG2 cells by measuring quinolylated lysine residues at proteins at 20 uM measured after 24 hrs by nano LC/MS/MS analysis; assay type: ADME, cell-based; details: hepg2, 24 h
[2] = Drug localization in cell membrane of human HepG2 cells by measuring quinolylated lysine residues at proteins at 20 uM measured after 24 hrs by nano LC/MS/MS analysis; assay type: ADME, cell-based; details: hepg2, 24 h
[3] = Drug localization in cytoskeleton of human HepG2 cells by measuring quinolylated lysine residues at proteins at 20 uM measured after 24 hrs by nano LC/MS/MS analysis; assay type: ADME, cell-based; details: hepg2, 24 h
[4] = Drug localization in endosome of human HepG2 cells by measuring quinolylated lysine residues at proteins at 20 uM measured after 24 hrs by nano LC/MS/MS analysis; assay type: ADME, cell-based; details: hepg2, 24 h
[5] = Drug localization in cytoplasm of human HepG2 cells by measuring quinolylated lysine residues at proteins at 20 uM measured after 24 hrs by nano LC/MS/MS analysis; assay type: ADME, cell-based; details: hepg2, 24 h
[6] = Drug localization in mitochondria of human HepG2 cells by measuring quinolylated lysine residues at proteins at 20 uM measured after 24 hrs by nano LC/MS/MS analysis; assay type: ADME; details: hepg2, 24 h
[7] = Drug localization in cytosol of human HepG2 cells by measuring quinolylated lysine residues at proteins at 20 uM measured after 24 hrs by nano LC/MS/MS analysis; assay type: ADME, subcellular
[8] = Drug localization in endoplasmic reticulum of human HepG2 cells by measuring quinolylated lysine residues at proteins at 20 uM measured after 24 hrs by nano LC/MS/MS analysis; assay type: ADME, cell-based; details: hepg2, 24 h
[9] = Drug localization in golgi apparatus of human HepG2 cells by measuring quinolylated lysine residues at proteins at 20 uM measured after 24 hrs by nano LC/MS/MS analysis; assay type: ADME, cell-based; details: hepg2, 24 h
[10] = biological target: T1, Replicase polyprotein 1ab (Severe acute respiratory syndrome coronavirus 2, UniProt P0DTD1); assay: Inhibition of SARS-CoV-2 3CLpro preincubated for 60 mins followed by addition of Dabcyl-KNSTLQSGLRKE-Edans fluorogenic peptide as substrate by FRET assay
[11] = biological target: T1, Replicase polyprotein 1ab; assay: Inhibition of SARS-CoV-2 3CLpro using Dabcyl-KNSTLQSGLRKE-Edans fluorogenic peptide as substrate by FRET assay

| Compound | Activity (HepG2) [%] | Drug uptake [1] [%] | Drug uptake [2] [%] | Drug uptake [3] [%] | Drug uptake [4] [%] | Drug uptake [5] [%] | Drug uptake [6] [%] | Drug uptake [7] [%] | Drug uptake [8] [%] | Drug uptake [9] [%] | IC50 [10] [µM] | IC50 [11] [µM] |
| --- | --- | --- | --- | --- | --- | --- | --- | --- | --- | --- | --- | --- |
| COC1CSc2ccc3cc(C(=O)NCCCCCN4C(=O)c5cccc6c(N(C)C)ccc(c56)C4=O)ccc3[n+]21.Cl.[Cl-] (stereo unspecified) | 90 | – | – | – | – | – | – | – | – | – | – | – |
| C#Cc1ccc2c(ccc3[n+]2C(OC)CS3)c1 (stereo unspecified) | – | 27.19 | 8.77 | 7.02 | 3.51 | 14.04 | 2.63 | 17.54 | 4.39 | 5.26 | – | – |
| C#Cc1ccc2c(ccc3[n+]2C(OC)C[Se]3)c1 (stereo unspecified) | – | 22.61 | 11.88 | 11.11 | 2.3 | 15.71 | 2.3 | 19.16 | 1.53 | 1.53 | 3.66 | 75 |
